Structures are written as SMILES.

Data on one compound can be found in paper PMC10573954, “Crystal Structure of DNA Replication Protein SsbA Complexed with the Anticancer Drug 5-Fluorouracil” (International Journal of Molecular Sciences, 2023).

In experiment [1] the target is T1, SsbA (SaSsbA), single-stranded DNA-binding protein (Staphylococcus aureus, UniProt A0A0D1JHQ1).
T1 construct: gene ssb; recombinant His-tagged SaSsbA (167 aa, pET21b); aa 105–167 not observed in the crystal structure
The experiment is described as follows: crystal structure ([…] Å) and intrinsic fluorescence quenching titration.

The target in experiment [2] is T2, SsbA (SaSsbA), single-stranded DNA-binding protein (Staphylococcus aureus, UniProt A0A0D1JHQ1, R18A).
T2 construct: gene ssb; recombinant His-tagged SaSsbA R18A (pET21b)
T2 sequence (A0A0D1JHQ1 1-167 R18A): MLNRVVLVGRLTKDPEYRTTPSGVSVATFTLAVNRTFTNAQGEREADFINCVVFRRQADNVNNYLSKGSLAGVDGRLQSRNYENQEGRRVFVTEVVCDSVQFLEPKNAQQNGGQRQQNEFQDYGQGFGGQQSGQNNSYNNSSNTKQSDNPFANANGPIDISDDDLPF
The experiment is described as follows: intrinsic fluorescence quenching titration.

On to `O=c1[nH]cc(F)c(=O)[nH]1` [5-FU, 5-fluorouracil], for which the results for the Kd in experiment [1] and in experiment [2] were 55.9 ± 0.7 µM and 498 ± 13.5 µM, respectively.

Broadly, the Kd is a measure of binding affinity in units of concentration. A higher Kd goes with weaker binding.
